Assay results from ChEMBL document CHEMBL3421546 (Bioorg Med Chem Lett, 2015).
In brackets after ≈: the same amount, converted by molar mass.

What was measured:
[1] = Cytotoxic activity against human HeLa cells assessed as cell viability at 100 ug/ml incubated for 24 hrs by MTT assay; type: cell-based; conditions: read-out: Activity
[2] = Cytotoxic activity against human HeLa cells assessed as reduction in cell viability incubated for 24 hrs by MTT assay; type: cell-based
[3] = Cytotoxic activity against human HeLa cells assessed as cell viability at 1 ug/ml incubated for 24 hrs by MTT assay; type: cell-based; conditions: read-out: Activity
Plasmodium falciparum [4] = test: Antimalarial activity against CQ-sensitive Plasmodium falciparum 3D7 cultivated in human type O+ red blood cells assessed as reduction in parasite infection incubated for 48 hrs by microscopy; type: functional, organism-based; conditions: 3D7, 48 h
[5] = Cytotoxic activity against human HeLa cells assessed as cell viability at 10 ug/ml incubated for 24 hrs by MTT assay; type: cell-based; conditions: read-out: Activity
[6] = Cytotoxic activity against human HeLa cells assessed as cell viability at 1000 ug/ml incubated for 24 hrs by MTT assay; type: cell-based; conditions: read-out: Activity
[7] = Cytotoxic activity against human HeLa cells assessed as cell viability at 0.1 ug/ml incubated for 24 hrs by MTT assay; type: cell-based; conditions: read-out: Activity
[8] = Selectivity index, ratio of CC50 for human HeLa cells to IC50 for CQ-sensitive Plasmodium falciparum 3D7; type: functional
[9] = Cytotoxic activity against human HepG2 cells assessed as reduction in cell viability incubated for 24 hrs by MTT assay; type: cell-based
[10] = Selectivity index, ratio of CC50 for human HepG2 cells to IC50 for CQ-sensitive Plasmodium falciparum 3D7; type: functional
[11] = Cytotoxic activity against human HepG2 cells assessed as cell viability at 10 ug/ml incubated for 24 hrs by MTT assay; type: cell-based; conditions: read-out: Activity
[12] = Cytotoxic activity against human HepG2 cells assessed as cell viability at 0.1 ug/ml incubated for 24 hrs by MTT assay; type: cell-based; conditions: read-out: Activity
[13] = Cytotoxic activity against human HepG2 cells assessed as cell viability at 1000 ug/ml incubated for 24 hrs by MTT assay; type: cell-based; conditions: read-out: Activity
[14] = Cytotoxic activity against human HepG2 cells assessed as cell viability at 1 ug/ml incubated for 24 hrs by MTT assay; type: cell-based; conditions: read-out: Activity
[15] = Cytotoxic activity against human HepG2 cells assessed as cell viability at 100 ug/ml incubated for 24 hrs by MTT assay; type: cell-based; conditions: read-out: Activity
Plasmodium falciparum [16] = test: Antimalarial activity against CQ-resistant Plasmodium falciparum W2 cultivated in human type O+ red blood cells assessed as reduction in parasite infection incubated for 48 hrs by microscopy; type: functional, organism-based; conditions: W2, 48 h
Plasmodium berghei [17] = test: Antimalarial activity against Plasmodium berghei NK65 infected in Swiss albino mouse assessed as inhibition of parasitemia at 10 mg/kg, po dosed for four consecutive days beginning on first day of infection and measured on day 12 post infection relative to untreated control; type: functional; conditions: NK65, 288 h
Mus musculus [18] = test: Toxicity in Plasmodium berghei NK65 infected Swiss albino mouse assessed as mouse survival at 10 mg/kg, po dosed for four consecutive days beginning on first day of infection and measured on day 12 post infection relative to untreated control; type: organism-based; design: dose 10 mg/kg, route oral; conditions: in vivo
Plasmodium berghei [19] = test: Antimalarial activity against Plasmodium berghei NK65 infected in Swiss albino mouse assessed as parasitemia level at 10 mg/kg, po dosed for four consecutive days beginning on first day of infection and measured on day 12 post infection (reference value: 8.81 +/- 1.17%); type: functional
Plasmodium berghei [20] = test: Antimalarial activity against Plasmodium berghei NK65 infected in Swiss albino mouse assessed as parasitemia level at 10 mg/kg, po dosed for four consecutive days beginning on first day of infection and measured on day 7 post infection (reference value: 5.42 +/- 0.79%); type: functional
Mus musculus [21] = test: Toxicity in Plasmodium berghei NK65 infected Swiss albino mouse assessed as mouse mortality at 10 mg/kg, po dosed for four consecutive days beginning on first day of infection and measured on day 12 post infection relative to untreated control; type: organism-based; design: dose 10 mg/kg, route oral; conditions: in vivo
Mus musculus [22] = test: Toxicity in Plasmodium berghei NK65 infected Swiss albino mouse assessed as mouse mortality at 10 mg/kg, po dosed for four consecutive days beginning on first day of infection and measured on day 7 post infection relative to untreated control; type: organism-based; design: dose 10 mg/kg, route oral; conditions: in vivo
Plasmodium berghei [23] = test: Antimalarial activity against Plasmodium berghei NK65 infected in Swiss albino mouse assessed as inhibition of parasitemia at 10 mg/kg, po dosed for four consecutive days beginning on first day of infection and measured on day 7 post infection relative to untreated control; type: functional; conditions: NK65, 168 h
Mus musculus [24] = test: Toxicity in Plasmodium berghei NK65 infected Swiss albino mouse assessed as mouse survival at 10 mg/kg, po dosed for four consecutive days beginning on first day of infection and measured on day 7 post infection relative to untreated control; type: organism-based; design: dose 10 mg/kg, route oral; conditions: in vivo

SMILES | IC50 (Plasmodium falciparum [4]) [µg/mL] | viability at 24 h, 100 ug/ml [1] [%] | CC50 at 24 h [2] [µg/mL] | viability at 24 h, 1 ug/ml [3] [%] | viability at 24 h, 10 ug/ml [5] [%] | viability at 24 h, 1000 ug/ml [6] [%] | viability at 24 h, 0.1 ug/ml [7] [%] | Ratio CC50/IC50 [8] | CC50 at 24 h [9] [µg/mL] | Ratio CC50/IC50 [10] | viability at 24 h, 10 ug/ml [11] [%] | viability at 24 h, 0.1 ug/ml [12] [%] | viability at 24 h, 1000 ug/ml [13] [%] | viability at 24 h, 1 ug/ml [14] [%] | viability at 24 h, 100 ug/ml [15] [%] | further results
O=S(=O)(Nc1nccs1)c1ccc(Nc2ccnc3cc(Cl)ccc23)cc1 | 5.97 (≈ 14.3 µM) | 65 | 334 (≈ 801 µM) | 71 | 60 | 12 | 74 | 56 | – | – | – | – | – | – | – | –
C[C@H]1[C@H](OC(=O)CCC(=O)O)O[C@@H]2O[C@@]3(C)CC[C@H]4[C@H](C)CC[C@@H]1[C@@]24OO3 [ARTESUNATE] | – | – | – | – | – | – | – | – | – | – | – | – | – | – | – | IC50 (Plasmodium falciparum [16]): < 0.39 µg/mL
CCN(CC)CCCC(C)Nc1ccnc2cc(Cl)ccc12 (centres undefined) [CHLOROQUINE] | < 0.19 | 100 | > 1000 | 94 | 97 | 92 | 98 | >1000 | > 1000 | >1000 | 92 | 93 | 60 | 97 | 67 | inhibition in vivo at 10 mg/kg (Plasmodium berghei [17]): 82%; IC50 (Plasmodium falciparum [16]): < 0.39 µg/mL; Activity (Mus musculus [18]): Non-toxic; Activity (Plasmodium berghei [19]): 1.55%; Activity (Plasmodium berghei [20]): 1.72%; Activity (Mus musculus [21]): Non-toxic; Activity (Mus musculus [22]): Non-toxic; inhibition in vivo at 10 mg/kg (Plasmodium berghei [23]): 68%; Activity (Mus musculus [24]): Non-toxic
NNC(=O)c1cccnc1 [NICOTINIC ACID HYDRAZIDE] | > 50 | 58 | 153 (≈ 1120 µM) | 87 | 92 | 25 | 88 | <3.06 | – | – | – | – | – | – | – | –

Now from value to compound, other results behind:

IC50 (Plasmodium falciparum [4]) [µg/mL] | SMILES | viability at 24 h, 100 ug/ml [1] [%] | CC50 at 24 h [2] [µg/mL] | viability at 24 h, 1 ug/ml [3] [%] | viability at 24 h, 10 ug/ml [5] [%] | viability at 24 h, 1000 ug/ml [6] [%] | viability at 24 h, 0.1 ug/ml [7] [%] | Ratio CC50/IC50 [8] | CC50 at 24 h [9] [µg/mL] | Ratio CC50/IC50 [10] | viability at 24 h, 10 ug/ml [11] [%] | viability at 24 h, 0.1 ug/ml [12] [%] | viability at 24 h, 1000 ug/ml [13] [%] | viability at 24 h, 1 ug/ml [14] [%] | viability at 24 h, 100 ug/ml [15] [%] | further results
2.18 (≈ 6.53 µM) | NS(=O)(=O)c1ccc(Nc2ccnc3cc(Cl)ccc23)cc1 | 91 | 793 (≈ 2380 µM) | 95 | 100 | 37 | 93 | 364 | 234 (≈ 701 µM) | 112 | 85 | 93 | 43 | 94 | 65 | –
3.64 (≈ 8.86 µM) | O=S(=O)(Nc1ccccn1)c1ccc(Nc2ccnc3cc(Cl)ccc23)cc1 | 53 | 113 (≈ 275 µM) | 78 | 68 | 11 | 82 | 31 | 252 (≈ 613 µM) | 69 | 86 | 92 | 48 | 97 | 57 | –
16.3 (≈ 39.6 µM) | O=S(=O)(Nc1ncccn1)c1ccc(Nc2ccnc3cc(Cl)ccc23)cc1 | 75 | 494 (≈ 1200 µM) | 82 | 76 | 22 | 85 | 30 | > 1000 | >61 | 89 | 85 | 68 | 90 | 75 | –
23.8 (≈ 57.5 µM) | Cc1cc(NS(=O)(=O)c2ccc(Nc3ccnc4cc(Cl)ccc34)cc2)no1 | 61 | 290 (≈ 699 µM) | 72 | 59 | 17 | 67 | 12 | – | – | – | – | – | – | – | –
